System: Ctenocephalides felis, Diabrotica undecimpunctata, Nephotettix cincticeps or Rhipicephalus sanguineus
Assay: Pooled statement: active in one or more of the above tests (Methods A to E)
Assay type: in vivo
Settings: active = reaching the threshold of Method A, B, C, D or E; test not given per compound
Method: The following representative test procedures, using compounds of the invention, were conducted to determine the parasiticidal and pesticidal activity of compounds of the invention.
A test container was filled with 10 adults of Ctenocephalides felis. A glass cylinder was closed on one end with parafilm and placed on top of the test container. The test compound solution was then pipetted into bovine blood and added to the glass cylinder. The treated Ctenocephalides felis were held in this artificial dog test (blood 37° C., 40-60% relative humidity; Ctenocephalides felis 20-22° C., 40-60% relative humidity) and assessment performed at 24 and 48 hours after application. Active compounds gave at least 90% control of Ctenocephalides felis at a test concentration of 5 ppm or less.
Two days before application, seeds of maize were soaked in water under warm conditions to elicit fast germination. One day before application, eggs of Diabrotica undecimpunctata were transferred to one half of a Japanese filter paper placed in a plastic petri dish. Afterwards, a sprouted maize seed was placed on a moistened pad beside the filter paper. Three drops of 200 microliters of test compound solution were carefully pipetted onto the egg. The remainder of the solution was placed on the maize and then the Petri dish was closed. The treated eggs in the Petri dishes were held in a climate chamber for 6 days. The compound efficacy (percentage of dead eggs and/or larvae in comparison to untreated control) was assessed 6 days after application using a binocular microscope.
Active compounds gave at least 90% control of Diabrotica undecimpunctata at a test concentration of 10 ppm.
The leaves of 12 rice plants having a stem length of 8 cm were dipped for 5 seconds into an aqueous solution of the formulated test compound. After the solution had run off, the rice plants treated in this manner were placed in a Petri dish and populated with about 20 larvae (L3 stage) of Nephotettix cincticeps. The Petri dish was closed and then stored in a climate chamber (16 hours of light/day, 25° C., 40-60% relative humidity). After 6 days storage, the percentage mortality of leafhopper larvae was determined.
Active compounds gave at least 98% mortality of Nephotettix cinciceps larvae at a test concentration of 100 ppm.
Solutions of the test compounds were dropped onto filter paper, dried and the filter paper placed into test tubes and infested with 10 adults of Ctenocephalides felis. The treated Ctenocephalides felis were held in a climate chamber (26° C., 80% RH) and the percentage efficacy assessed 24 hours and 48 hours after application in comparison with the untreated control.
Active compounds gave at least 70% contact control of Ctenocephalides felis at a test concentration of 1000 ppm.
Solutions of the test compounds were dropped onto filter paper, dried and the filter paper placed into test tubes and infested with 20-30 larvae (L1) of Rhipicephalus sanguineus and the tubes closed with a clip. The treated Rhipicephalus sanguineus were held in a climate chamber (25° C., 90% RH) and the percentage efficacy assessed 24 hours after application in comparison with the untreated control. Active compounds gave at least 70% contact control of Rhipicephalus sanguineus at a test concentration of 100 ppm.

Compound	active in one or more of the above tests
CN(c1c([S+]([O-])C(F)(F)F)c(C#N)nn1-c1c(Cl)cc(C(F)(F)F)cc1Cl)S(=O)(=O)Cc1ccc(Cl)s1 (stereo not drawn) [Compound 4-35]	active
CCCCCCCCCS(=O)(=O)N(C)c1c([S+]([O-])C(F)(F)F)c(C#N)nn1-c1c(Cl)cc(C(F)(F)F)cc1Cl (stereo not drawn) [Compound 1-94]	active
CN(c1c(S(=O)(=O)C(F)(F)F)c(C#N)nn1-c1c(Cl)cc(C(F)(F)F)cc1Cl)S(=O)(=O)Cc1ccccc1 [Compound 2-30]	active
CN(c1c([S+]([O-])C(F)(F)F)c(C#N)nn1-c1c(Cl)cc(C(F)(F)F)cc1Cl)S(=O)(=O)c1cccc2ccccc12 (stereo not drawn) [Compound 5-89]	active
CN(c1c([S+]([O-])C(F)(F)F)c(C#N)nn1-c1c(Cl)cc(C(F)(F)F)cc1Cl)S(=O)(=O)c1ccccc1 (stereo not drawn) [Compound 5-81]	active
CN(c1c(SC(F)(F)F)c(C#N)nn1-c1c(Cl)cc(C(F)(F)F)cc1Cl)S(=O)(=O)Cc1cccc(C(F)(F)F)c1 [Compound 2-57]	active
CN(c1c([S+]([O-])C(F)(F)F)c(C#N)nn1-c1c(Cl)cc(C(F)(F)F)cc1Cl)S(=O)(=O)c1ccccc1Cl (stereo not drawn) [Compound 5-46]	active
CN(c1c([S+]([O-])C(F)(F)F)c(C#N)nn1-c1c(Cl)cc(C(F)(F)F)cc1Cl)S(=O)(=O)c1ccc(Cl)cc1 (stereo not drawn) [Compound 5-48]	active
CN(c1c([S+]([O-])C(F)(F)F)c(C#N)nn1-c1c(Cl)cc(C(F)(F)F)cc1Cl)S(=O)(=O)c1cc(Cl)cc(Cl)c1 (stereo not drawn) [Compound 5-87]	active
CN(c1c([S+]([O-])C(F)(F)F)c(C#N)nn1-c1c(Cl)cc(C(F)(F)F)cc1Cl)S(=O)(=O)C(Cl)(Cl)Cl (stereo not drawn) [Compound 1-118]	active
CN(c1c(SC(F)(F)F)c(C#N)nn1-c1c(Cl)cc(C(F)(F)F)cc1Cl)S(=O)(=O)c1cc(Cl)cc(Cl)c1 [Compound 5-42]	active
CN(c1c(SC(F)(F)F)c(C#N)nn1-c1c(Cl)cc(C(F)(F)F)cc1Cl)S(=O)(=O)Cc1ccc(Cl)c(Cl)c1 [Compound 2-48]	active
CN(c1c(S(=O)(=O)C(F)(F)F)c(C#N)nn1-c1c(Cl)cc(C(F)(F)F)cc1Cl)S(=O)(=O)Cc1cccs1 [Compound 4-34]	active
CCCCCc1ccc(CS(=O)(=O)N(C)c2c(SC(F)(F)F)c(C#N)nn2-c2c(Cl)cc(C(F)(F)F)cc2Cl)cc1 [Compound 2-148]	active
CCCCCCCCCCS(=O)(=O)N(C)c1c([S+]([O-])C(F)(F)F)c(C#N)nn1-c1c(Cl)cc(C(F)(F)F)cc1Cl (stereo not drawn) [Compound 1-95]	active
CN(c1c(SC(F)(F)F)c(C#N)nn1-c1c(Cl)cc(C(F)(F)F)cc1Cl)S(=O)(=O)Cc1ccc(F)cc1 [Compound 2-51]	active
CN(c1c([S+]([O-])C(F)(F)F)c(C(N)=S)nn1-c1c(Cl)cc(C(F)(F)F)cc1Cl)S(=O)(=O)Cc1ccccc1 (stereo not drawn) [Compound 7-32]	active
CN(c1c([S+]([O-])C(F)(F)F)c(C#N)nn1-c1c(Cl)cc(C(F)(F)F)cc1Cl)S(=O)(=O)c1ccc(-c2ccc(Cl)c(Cl)c2)cc1 (stereo not drawn) [Compound 5-150]	active
CN(c1c(SC(F)(F)F)c(C#N)nn1-c1c(Cl)cc(C(F)(F)F)cc1Cl)S(=O)(=O)Cc1cc(Cl)cc(Cl)c1 [Compound 2-149]	active
CN(c1c(SC(F)(F)F)c(C#N)nn1-c1c(Cl)cc(C(F)(F)F)cc1Cl)S(=O)(=O)Cc1cccs1 [Compound 4-33]	active
CCS(=O)(=O)N(C)c1c(S(=O)(=O)C(F)(F)F)c(C#N)nn1-c1c(Cl)cc(C(F)(F)F)cc1Cl [Compound 1-72]	active

Compound	active in one or more of the above tests
CN(c1c(S(=O)(=O)C(F)(F)F)c(C#N)nn1-c1c(Cl)cc(C(F)(F)F)cc1Cl)S(=O)(=O)Cc1ccc(F)cc1 [Compound 2-121]	active
Cc1ccc(S(=O)(=O)N(C)c2c(SC(F)(F)F)c(C#N)nn2-c2c(Cl)cc(C(F)(F)F)cc2Cl)cc1 [Compound 5-32]	active
Cc1cccc(S(=O)(=O)N(C)c2c(SC(F)(F)F)c(C#N)nn2-c2c(Cl)cc(C(F)(F)F)cc2Cl)c1 [Compound 5-30]	active
CCCCS(=O)(=O)N(C)c1c([S+]([O-])C(F)(F)F)c(C#N)nn1-c1c(Cl)cc(C(F)(F)F)cc1Cl (stereo not drawn) [Compound 1-87]	active
CN(c1c([S+]([O-])C(F)(F)F)c(C#N)nn1-c1c(Cl)cc(C(F)(F)F)cc1Cl)S(=O)(=O)Cc1cccc(C(F)(F)F)c1 (stereo not drawn) [Compound 2-92]	active
CN(c1c([S+]([O-])C(F)(F)F)c(C#N)nn1-c1c(Cl)cc(C(F)(F)F)cc1Cl)S(=O)(=O)C(F)(F)F (stereo not drawn) [Compound 1-90]	active
CN(c1c(SC(F)(F)F)c(C#N)nn1-c1c(Cl)cc(C(F)(F)F)cc1Cl)S(=O)(=O)c1ccccc1 [Compound 5-36]	active
CCCCCCCCS(=O)(=O)N(C)c1c([S+]([O-])C(F)(F)F)c(C#N)nn1-c1c(Cl)cc(C(F)(F)F)cc1Cl (stereo not drawn) [Compound 1-93]	active
Cc1cc(C)c(S(=O)(=O)N(C)c2c(SC(F)(F)F)c(C#N)nn2-c2c(Cl)cc(C(F)(F)F)cc2Cl)c(C)c1 [Compound 5-40]	active
CS(=O)(=O)Nc1c(SC(F)(F)F)c(C#N)nn1-c1c(Cl)cc(C(F)(F)F)cc1Cl [Compound 1-1]	active
CN(c1c(SC(F)(F)F)c(C#N)nn1-c1c(Cl)cc(C(F)(F)F)cc1Cl)S(C)(=O)=O [Compound 1-2]	active
CCCCCCCCS(=O)(=O)N(C)c1c([S+]([O-])C(F)(F)F)c(C#N)nn1-c1c(Cl)cc(C(F)(F)F)cc1Cl (stereo not drawn) [Compound 1-123]	active
CN(c1c(SC(F)(F)F)c(C#N)nn1-c1c(Cl)cc(C(F)(F)F)cc1Cl)S(=O)(=O)c1ccccc1Cl [Compound 5-1]	active
Cc1ccc(S(=O)(=O)N(C)c2c([S+]([O-])C(F)(F)F)c(C#N)nn2-c2c(Cl)cc(C(F)(F)F)cc2Cl)cc1 (stereo not drawn) [Compound 5-77]	active
C=CS(=O)(=O)N(C)c1c([S+]([O-])C(F)(F)F)c(C#N)nn1-c1c(Cl)cc(C(F)(F)F)cc1Cl (stereo not drawn) [Compound 1-97]	active
COc1ccc(S(=O)(=O)N(C)c2c(SC(F)(F)F)c(C#N)nn2-c2c(Cl)cc(C(F)(F)F)cc2Cl)cc1 [Compound 5-22]	active
CN(c1c(S(=O)(=O)C(F)(F)F)c(C#N)nn1-c1c(Cl)cc(C(F)(F)F)cc1Cl)S(=O)(=O)Cc1ccc(Cl)cc1 [Compound 2-115]	active
CN(c1c([S+]([O-])C(F)(F)F)c(C#N)nn1-c1c(Cl)cc(C(F)(F)F)cc1Cl)S(C)(=O)=O (stereo not drawn) [Compound 1-16]	active
CN(c1c(SC(F)(F)F)c(C#N)nn1-c1c(Cl)cc(C(F)(F)F)cc1Cl)S(=O)(=O)Cc1ccc(C(F)(F)F)cc1 [Compound 2-58]	active
CCCCCCCCCS(=O)(=O)N(C)c1c(SC(F)(F)F)c(C#N)nn1-c1c(Cl)cc(C(F)(F)F)cc1Cl [Compound 1-124]	active
CN(c1c(SC(F)(F)F)c(C#N)nn1-c1c(Cl)cc(C(F)(F)F)cc1Cl)S(=O)(=O)c1ccc(F)cc1 [Compound 5-9]	active

Reference: patent US7504362B2, “Pesticidal compositions” (Merial Limited, priority 2002, dated 2009)
